In the supplement of paper PMC10307832:

Experiments:
Test in all cases: relative viability (nuclei count vs DMSO), 5 days (fraction); higher = more cells survive
BAM7 + Crizotinib = compound: CCOC1=CC=CC=C1N=NC2=C(NN(C2=O)C3=NC(=CS3)C4=CC=CC=C4)C [BAM7] + C[C@@H](Oc1cc(-c2cnn(C3CCNCC3)c2)cnc1N)c1c(Cl)ccc(F)c1Cl [Crizotinib] (partner 1 µM)
In short: (§1)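 Values are medians from duplicate plates. Each reflects relative viability, defined as the nuclei count of treated wells over that of vehicle wells. Lung cancer cell lines in 1536-well plates were pin-tool dosed one day after seeding with one drug alone or with a fixed anchor-drug dose plus five library-drug doses (not always all listed) in √10 steps, then fixed, stained and imaged at 4× after 5 days.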

BAM7 + Linsitinib = compound: CCOC1=CC=CC=C1N=NC2=C(NN(C2=O)C3=NC(=CS3)C4=CC=CC=C4)C [BAM7] + C[C@]1(O)C[C@@H](c2nc(-c3ccc4ccc(-c5ccccc5)nc4c3)c3c(N)nccn32)C1 [Linsitinib] (partner 1 µM)
In short: as §1

BAM7 + Pictilisib = compound: CCOC1=CC=CC=C1N=NC2=C(NN(C2=O)C3=NC(=CS3)C4=CC=CC=C4)C [BAM7] + CS(=O)(=O)N1CCN(Cc2cc3nc(-c4cccc5[nH]ncc45)nc(N4CCOCC4)c3s2)CC1 [Pictilisib] (partner 1 µM)
In short: as §1

BAM7 + Tozasertib = compound: CCOC1=CC=CC=C1N=NC2=C(NN(C2=O)C3=NC(=CS3)C4=CC=CC=C4)C [BAM7] + Cc1cc(Nc2cc(N3CCN(C)CC3)nc(Sc3ccc(NC(=O)C4CC4)cc3)n2)n[nH]1 [Tozasertib] (partner 0.1 µM)
In short: as §1

BAM7 + OSI-027 = compound: CCOC1=CC=CC=C1N=NC2=C(NN(C2=O)C3=NC(=CS3)C4=CC=CC=C4)C [BAM7] + COc1cccc2cc(-c3nc([C@H]4CC[C@H](C(=O)O)CC4)n4ncnc(N)c34)[nH]c12 [OSI-027] (partner 0.5 µM)
In short: as §1

Cell Line | relative viability (BAM7 + Crizotinib; first compound 0.5 µM) | relative viability (BAM7 + Crizotinib; first compound 5 µM) | relative viability (BAM7 + Crizotinib; first compound 15.81 µM) | relative viability (BAM7 + Crizotinib; first compound 50 µM) | relative viability (BAM7 + Linsitinib; first compound 0.5 µM) | relative viability (BAM7 + Linsitinib; first compound 5 µM) | relative viability (BAM7 + Linsitinib; first compound 15.81 µM) | relative viability (BAM7 + Linsitinib; first compound 50 µM) | relative viability (BAM7 + Pictilisib; first compound 0.5 µM) | relative viability (BAM7 + Pictilisib; first compound 5 µM) | relative viability (BAM7 + Pictilisib; first compound 15.81 µM) | relative viability (BAM7 + Pictilisib; first compound 50 µM) | relative viability (BAM7 + Tozasertib; first compound 0.5 µM) | relative viability (BAM7 + Tozasertib; first compound 5 µM) | relative viability (BAM7 + Tozasertib; first compound 15.81 µM) | relative viability (BAM7 + Tozasertib; first compound 50 µM) | relative viability (BAM7 + OSI-027; first compound 0.5 µM) | relative viability (BAM7 + OSI-027; first compound 5 µM) | relative viability (BAM7 + OSI-027; first compound 15.81 µM) | relative viability (BAM7 + OSI-027; first compound 50 µM)
LCLC-103H | 1.08 | 1.03 | 1.01 | 0.804 | 1.06 | 1.22 | 1.15 | 0.933 | 0.611 | 0.654 | 0.604 | 0.687 | 0.445 | 0.513 | 0.402 | 0.51 | 0.366 | 0.505 | 0.504 | 0.537
LK-2 | 0.246 | 0.23 | 0.244 | 0.27 | 0.675 | 0.708 | 0.629 | 0.59 | 0.595 | 0.663 | 0.598 | 0.546 | 0.173 | 0.174 | 0.15 | 0.173 | 0.206 | 0.205 | 0.225 | 0.218
LOU-NH91 | 0.722 | 0.801 | 0.719 | 0.705 | 0.912 | 0.936 | 0.893 | 0.996 | 0.54 | 0.555 | 0.524 | 0.532 | 0.667 | 0.702 | 0.674 | 0.689 | 0.717 | 0.729 | 0.729 | 0.801
LU99A | 0.602 | 0.542 | 0.567 | 0.555 | 0.565 | 0.542 | 0.491 | 0.6 | 0.32 | 0.315 | 0.398 | 0.353 | 0.273 | 0.275 | 0.288 | 0.266 | 0.256 | 0.29 | 0.347 | 0.322
LXF-289 | 0.924 | 0.876 | 0.773 | 0.787 | 1.02 | 1.04 | 0.955 | 0.962 | 0.892 | 0.844 | 0.766 | 0.786 | 0.206 | 0.215 | 0.183 | 0.19 | 0.923 | 0.909 | 0.761 | 0.802
NCI-H23 | 0.587 | 0.535 | 0.424 | 0.515 | 0.507 | 0.663 | 0.698 | 0.679 | 0.55 | 0.52 | 0.499 | 0.542 | 0.245 | 0.367 | 0.288 | 0.256 | 0.492 | 0.561 | 0.451 | 0.526
NCI-H322M | 0.859 | 0.798 | 0.811 | 0.641 | 0.892 | 0.805 | 0.949 | 0.845 | 0.53 | 0.623 | 0.549 | 0.578 | 0.481 | 0.474 | 0.523 | 0.467 | 0.576 | 0.617 | 0.57 | 0.65
NCI-H358 | 0.76 | 0.589 | 0.522 | 0.52 | 0.782 | 0.878 | 0.704 | 0.787 | 0.296 | 0.366 | 0.327 | 0.359 | 0.136 | 0.0963 | 0.0944 | 0.108 | 0.832 | 0.899 | 0.796 | 0.908
NCI-H441 | 0.776 | 0.656 | 0.706 | 0.717 | 0.547 | 0.597 | 0.648 | 0.399 | 0.433 | 0.47 | 0.528 | 0.519 | 0.643 | 0.562 | 0.526 | 0.627 | 0.578 | 0.574 | 0.639 | 0.694
NCI-H460 | 1.16 | 1.13 | 0.743 | 0.96 | 1.02 | 0.765 | 0.653 | 0.754 | 0.439 | 0.485 | 0.411 | 0.381 | 0.4 | 0.0975 | 0.123 | 0.131 | 0.525 | 0.468 | 0.55 | 0.624
NCI-H520 | 0.705 | 0.747 | 0.856 | 0.684 | 0.916 | 1.03 | 1.08 | 0.87 | 0.273 | 0.3 | 0.264 | 0.324 | 0.416 | 0.51 | 0.436 | 0.405 | 0.305 | 0.263 | 0.293 | 0.356
NCI-H596 | 0.97 | 1.03 | 0.913 | 0.978 | 1.05 | 1.15 | 1.02 | 1.14 | 0.372 | 0.455 | 0.399 | 0.35 | 1.11 | 0.936 | 0.789 | 0.9 | 0.686 | 0.576 | 0.593 | 0.725
NCI-H647 | 0.758 | 1.25 | 1.14 | 1.08 | 1.27 | 1.32 | 1.13 | 1.12 | 0.49 | 0.511 | 0.478 | 0.541 | 0.309 | 0.333 | 0.294 | 0.247 | 0.613 | 0.622 | 0.549 | 0.68
NCI-H650 | 0.649 | 0.764 | 0.656 | 0.69 | 0.867 | 0.95 | 0.825 | 1.19 | 0.893 | 1.03 | 0.896 | 0.77 | 0.803 | 0.861 | 0.702 | 0.796 | 0.505 | 0.591 | 0.493 | 0.589
NCI-H661 | 1.27 | 1.08 | 0.971 | 0.931 | 0.672 | 0.605 | 0.433 | 0.601 | 0.406 | 0.426 | 0.452 | 0.423 | 0.376 | 0.361 | 0.359 | 0.358 | 0.662 | 0.704 | 0.761 | 0.686
